ChEMBL document CHEMBL1130774, “Pyrazoles, 1,2,4-triazoles, and tetrazoles as surrogates for cis-amide bonds in boronate ester thrombin inhibitors” (Bioorg Med Chem Lett, 1998)

Legend:
Serine protease 1 = Serine protease 1 (Homo sapiens, UniProt P07477); experiment: Inhibition of trypsin
Prothrombin [1] = target: T1, Prothrombin (Homo sapiens, UniProt P00734); experiment: Inhibition against human thrombin
Coagulation factor VII = target: T2, Coagulation factor VII (Homo sapiens, UniProt P08709); experiment: Inhibition against human Coagulation factor VII
T2 sequence (P08709 whole entry): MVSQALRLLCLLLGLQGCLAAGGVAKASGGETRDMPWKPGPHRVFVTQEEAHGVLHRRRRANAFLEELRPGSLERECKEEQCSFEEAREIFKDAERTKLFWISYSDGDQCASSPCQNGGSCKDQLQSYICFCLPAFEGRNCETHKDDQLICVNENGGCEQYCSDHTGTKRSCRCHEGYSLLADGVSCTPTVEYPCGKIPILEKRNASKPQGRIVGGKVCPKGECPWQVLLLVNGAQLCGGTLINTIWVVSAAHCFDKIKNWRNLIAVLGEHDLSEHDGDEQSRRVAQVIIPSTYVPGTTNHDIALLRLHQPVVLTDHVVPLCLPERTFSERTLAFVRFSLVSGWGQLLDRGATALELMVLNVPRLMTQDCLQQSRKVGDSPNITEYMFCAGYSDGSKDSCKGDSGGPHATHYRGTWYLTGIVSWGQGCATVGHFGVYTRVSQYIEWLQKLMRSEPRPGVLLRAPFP

Coagulation factor X = Coagulation factor X (Homo sapiens, UniProt P00742); experiment: Inhibition against human coagulation factor Xa
Sequence of Coagulation factor X (P00742 41-179 limits assumed): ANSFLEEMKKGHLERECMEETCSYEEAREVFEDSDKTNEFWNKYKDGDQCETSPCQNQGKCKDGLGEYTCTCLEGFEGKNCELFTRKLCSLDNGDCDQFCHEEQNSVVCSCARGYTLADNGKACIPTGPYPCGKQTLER
Sequence of Coagulation factor X (P00742 235-488 limits assumed): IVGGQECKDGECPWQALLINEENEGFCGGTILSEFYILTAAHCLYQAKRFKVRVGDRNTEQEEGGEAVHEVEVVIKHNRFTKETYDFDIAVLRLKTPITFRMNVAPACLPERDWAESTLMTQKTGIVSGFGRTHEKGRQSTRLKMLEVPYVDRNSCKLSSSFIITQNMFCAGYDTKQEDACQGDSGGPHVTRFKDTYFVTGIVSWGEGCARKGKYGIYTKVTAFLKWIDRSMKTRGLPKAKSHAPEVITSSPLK

[2] = Compound was tested for inhibition against tissue factor.
[3] = (§1) Concentration necessary to double the time required for clot formation induced by the addition of 4 NIH u/mL (final concentration) bovine thrombin.; format: functional
Prothrombin [4] = target: T1, Prothrombin; experiment: Concentration necessary to double the time required for clot formation induced by the addition of 4 NIH u/mL(final concentration) bovine thrombin.; format: functional
[5] = Compound was tested for inhibition against Coagulation factor I
Prothrombin [6] = target: T1, Prothrombin; experiment: as §1; format: functional

Sequence of Serine protease 1 (P07477 whole entry): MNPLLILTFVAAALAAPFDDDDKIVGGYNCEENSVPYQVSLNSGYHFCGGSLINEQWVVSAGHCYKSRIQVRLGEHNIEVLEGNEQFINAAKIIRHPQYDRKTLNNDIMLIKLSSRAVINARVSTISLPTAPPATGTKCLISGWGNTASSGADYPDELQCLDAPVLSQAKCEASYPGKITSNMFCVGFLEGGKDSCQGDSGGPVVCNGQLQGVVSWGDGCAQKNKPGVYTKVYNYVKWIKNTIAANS

Compound | Ki (Serine protease 1) | Ki (Prothrombin [1]) | Ki (Coagulation factor VII) | Ki (Coagulation factor X) | Ki [2] | Ki [3] | Ki (Prothrombin [4]) | Ki [5] | Ki (Prothrombin [6])
CC1(C)[C@@H]2C[C@H]3OB([C@H](CCCCN)NC(=O)Cn4ncnc4Cc4ccccc4)O[C@@]3(C)[C@H]1C2 |  | 31 nM |  |  |  | 2500 nM |  |  | 
CC1(C)[C@@H]2C[C@H]3OB([C@H](CCCCN)NC(=O)Cn4nc(-c5ccccc5)nc4Cc4ccccc4)O[C@@]3(C)[C@H]1C2 |  | 173 nM |  |  |  |  |  |  | 
CC1(C)[C@@H]2C[C@H]3OB([C@H](CCCCN)NC(=O)Cn4nc(COCc5ccccc5)nc4Cc4ccccc4)O[C@@]3(C)[C@H]1C2 |  | 8.7 nM | 1500 nM | 1600 nM |  |  | 1300 nM |  | 
CC(C)(C)OC(=O)/C=C/c1nc(Cc2ccccc2)n(CC(=O)N[C@@H](CCCCN)B2O[C@@H]3C[C@@H]4C[C@@H](C4(C)C)[C@]3(C)O2)n1 | 36 nM | 150 nM | 2700 nM | > 6000 nM | 2800 nM |  |  |  | 
CC(C)C(=O)NCc1nc(Cc2ccccc2)n(CC(=O)N[C@@H](CCCCN)B2O[C@@H]3C[C@@H]4C[C@@H](C4(C)C)[C@]3(C)O2)n1 | 9.6 nM | 160 nM | > 3000 nM | > 6000 nM |  |  |  |  | 
CC1(C)[C@@H]2C[C@H]3OB([C@H](CCCCN)NC(=O)Cn4nc(-c5cccc([N+](=O)[O-])c5)nc4Cc4ccccc4)O[C@@]3(C)[C@H]1C2 |  | 85 nM | 2600 nM | 4200 nM |  |  |  |  | 
CC1(C)[C@@H]2C[C@H]3OB([C@H](CCCCN)NC(=O)Cn4nc(-c5cccc(N)c5)nc4Cc4ccccc4)O[C@@]3(C)[C@H]1C2 | 4.2 nM | 150 nM | 1400 nM | > 6000 nM |  |  |  |  | 
CC1(C)[C@@H]2C[C@H]3OB([C@H](CCCCN)NC(=O)Cn4nc(CC#N)cc4CCc4ccccc4)O[C@@]3(C)[C@H]1C2 | 35 nM | 4.6 nM |  | > 6000 nM |  |  |  | 13000 nM | 
CC1(C)[C@@H]2C[C@H]3OB([C@H](CCCCN)NC(=O)Cn4nc(Cc5nn[nH]n5)nc4Cc4ccccc4)O[C@@]3(C)[C@H]1C2 |  | 350 nM |  |  |  |  |  |  | 
CC(C)(C)OC(=O)CCc1nc(Cc2ccccc2)n(CC(=O)N[C@@H](CCCCN)B2O[C@@H]3C[C@@H]4C[C@@H](C4(C)C)[C@]3(C)O2)n1 | 1.4 nM | 5.5 nM | > 3000 nM | 760 nM | 670 nM |  |  |  | 
CC1(C)[C@@H]2C[C@H]3OB([C@H](CCCCN)NC(=O)Cn4nnnc4CCc4ccccc4)O[C@@]3(C)[C@H]1C2 |  | 33 nM |  |  |  |  |  |  | 
CC1(C)[C@@H]2C[C@H]3OB([C@H](CCCCN)NC(=O)Cn4nc(Cc5ccccc5)nc4Cc4ccccc4)O[C@@]3(C)[C@H]1C2 |  | 41 nM | 3940 nM | > 6000 nM |  |  |  |  | 
CC1(C)[C@@H]2C[C@H]3OB([C@H](CCCCN)NC(=O)Cn4nc(CC#N)nc4Cc4cccc([N+](=O)[O-])c4)O[C@@]3(C)[C@H]1C2 | 23 nM | 1.8 nM | > 3000 nM | > 6000 nM |  |  |  | 1900 nM | 
CC1(C)[C@@H]2C[C@H]3OB([C@H](CCCCN)NC(=O)Cn4nc(CC#N)nc4Cc4ccccc4[N+](=O)[O-])O[C@@]3(C)[C@H]1C2 | 8.4 nM | 0.8 nM | 3000 nM | 4900 nM |  |  |  | 2000 nM | 
CC1(C)[C@@H]2C[C@H]3OB([C@H](CCCCN)NC(=O)Cn4nc(CC#N)nc4CCc4ccccc4)O[C@@]3(C)[C@H]1C2 | 12 nM | 2.6 nM | > 3000 nM | > 6000 nM |  |  |  | 6800 nM | 
CC(C)(C)CC(=O)NCc1nc(Cc2ccccc2)n(CC(=O)N[C@@H](CCCCN)B2O[C@@H]3C[C@@H]4C[C@@H](C4(C)C)[C@]3(C)O2)n1 | 2.7 nM | 33 nM | > 3000 nM | 4300 nM | 1490 nM |  |  |  | 
CC1(C)[C@@H]2C[C@H]3OB([C@H](CCCCN)NC(=O)Cn4ncnc4CCCc4ccccc4)O[C@@]3(C)[C@H]1C2 |  | > 42 nM |  |  |  |  |  |  | 
CC1(C)[C@@H]2C[C@H]3OB([C@H](CCCCN)NC(=O)Cn4ncnc4CCc4ccccc4)O[C@@]3(C)[C@H]1C2 |  | 36 nM |  |  |  |  |  |  | 
CN(CC(=O)N[C@@H](CCCSC(=N)N)B(O)O)C(=O)CCc1ccccc1 |  | 0.3 nM |  |  |  |  |  |  | 

The next lines start with the values.

Ki (Serine protease 1) | Ki (Prothrombin [1]) | Ki (Coagulation factor VII) | Ki (Coagulation factor X) | Ki [2] | Ki [3] | Ki (Prothrombin [4]) | Ki [5] | Ki (Prothrombin [6]) | Compound
> 1200 nM | 210 nM | > 3000 nM | > 6000 nM | 3700 nM |  |  |  |  | CC1(C)[C@@H]2C[C@H]3OB([C@H](CCCCN)NC(=O)Cn4nc(CNS(=O)(=O)C(F)(F)F)nc4Cc4ccccc4)O[C@@]3(C)[C@H]1C2
 | 84 nM | 7700 nM | > 6000 nM |  |  |  |  |  | CC1(C)[C@@H]2C[C@H]3OB([C@H](CCCCN)NC(=O)Cn4nc(CO)nc4Cc4ccccc4)O[C@@]3(C)[C@H]1C2
 | 8.6 nM | 7160 nM | > 6000 nM |  |  | 6000 nM |  |  | Cc1nc(Cc2ccccc2)n(CC(=O)N[C@@H](CCCCN)B2O[C@@H]3C[C@@H]4C[C@@H](C4(C)C)[C@]3(C)O2)n1
1.9 nM | 65 nM | 2500 nM | > 6000 nM |  |  | 4500 nM |  |  | CSCc1nc(Cc2ccccc2)n(CC(=O)N[C@@H](CCCCN)B2O[C@@H]3C[C@@H]4C[C@@H](C4(C)C)[C@]3(C)O2)n1
2.1 nM | 11 nM | 1900 nM | > 6000 nM | 2700 nM |  |  |  |  | CC1(C)[C@@H]2C[C@H]3OB([C@H](CCCCN)NC(=O)Cn4nc(CS(C)(=O)=O)nc4Cc4ccccc4)O[C@@]3(C)[C@H]1C2
7.1 nM | 230 nM | > 3000 nM | > 6000 nM | > 10000 nM |  |  |  |  | CC1(C)[C@@H]2C[C@H]3OB([C@H](CCCCN)NC(=O)Cn4nc(CCC(=O)O)nc4Cc4ccccc4)O[C@@]3(C)[C@H]1C2
2.3 nM | 73 nM | 2400 nM | > 6000 nM |  |  |  |  |  | CCCc1nc(Cc2ccccc2)n(CC(=O)N[C@@H](CCCCN)B2O[C@@H]3C[C@@H]4C[C@@H](C4(C)C)[C@]3(C)O2)n1
 | 1700 nM | > 14000 nM | > 6000 nM |  |  |  |  |  | CC1(C)[C@@H]2C[C@H]3OB([C@H](CCCCN)NC(=O)Cn4nc(CC(=O)O)nc4Cc4ccccc4)O[C@@]3(C)[C@H]1C2
4.8 nM | 47 nM | 2100 nM | 6000 nM | 3600 nM |  |  |  |  | C[S+]([O-])Cc1nc(Cc2ccccc2)n(CC(=O)N[C@@H](CCCCN)B2O[C@@H]3C[C@@H]4C[C@@H](C4(C)C)[C@]3(C)O2)n1 (some centres not stated)
 | 85 nM | 14000 nM | > 6000 nM |  |  |  |  |  | COC(=O)Cc1nc(Cc2ccccc2)n(CC(=O)N[C@@H](CCCCN)B2O[C@@H]3C[C@@H]4C[C@@H](C4(C)C)[C@]3(C)O2)n1
6.6 nM | 33 nM | 2200 nM | > 6000 nM | 2700 nM |  |  |  |  | CC1(C)[C@@H]2C[C@H]3OB([C@H](CCCCN)NC(=O)Cn4nc(CNC=O)nc4Cc4ccccc4)O[C@@]3(C)[C@H]1C2
5.6 nM | 3.5 nM | 4200 nM | > 6000 nM |  |  |  |  | 500 nM | CC1(C)[C@@H]2C[C@H]3OB([C@H](CCCCN)NC(=O)Cn4nc(CC#N)nc4Cc4ccccc4)O[C@@]3(C)[C@H]1C2
